Patent US10125142B2, “Method for purifying mitomycin C” (Kyowa Hakko Kirin Co., Ltd., priority 2015, dated 2018)

Assay: Change in the number of particles in mitomycin C in a stability test under severe conditions (MFI DPA5200 particle quantification)
Format: physicochemical
Conditions: for number of particles ≥10 μm in 10 mg of mitomycin C / number of particles ≥25 μm in 10 mg of mitomycin C: average of triplicates; for change in number of particles having a diameter of 10 μm or more / change in number of particles having a diameter of 25 μm or more: after 300-hour exposure to severe conditions (50° C.), result in words
Method: Change in the Number of Particles in Mitomycin C in a Stability Test under Severe Conditions
300 mg of each mitomycin C prepared in Example 1 and Comparative Examples 1 and 2 is separately placed into a vial, and stored at 50° C. under uncontrolled humidity. Sampling was performed after 0, 191 and 300 hours from the onset of the storage, and whether the number of particles would increase was examined according to the following section “Quantification of Particles in Mitomycin C”.
Quantification of Particles in Mitomycin C
10 mg of mitomycin C was weighed out accurately, water for injection was added to make up the volume to 25 mL exactly, and the resulting solution was used as a sample solution.
The particles in mitomycin C were analyzed with MFI DPA5200 (Protein Simple). Prior to the analysis of the sample solution, the passage in the analytical device was washed with water for injection to obtain the particle-free baseline. 1 mL of the sample solution was drawn into a pipette tip and then loaded on the sample holder. The sample solution was allowed to pass into the passage at a flow rate 0.1 mL/min to completely replace the liquid in the passage, and then the analysis of the sample; solution was started (volume for analysis: 0.61 mL).
The obtained data was filtered on MVAS 1.3 software to extract particles having an aspect ratio of less than 0.85 for the purpose of excluding bubbles. The number of particles having a diameter of 10 μm or more in 10 mg of mitomycin C and the number of particles having a diameter of 25 μm or more in 10 mg of mitomycin C were separately counted using Microsoft Excel.
The above procedure was repeated 3 times, and the average value of the triplicates was used as the quantitative value.

[1] = 191 hours storage at 50° C. under uncontrolled humidity
[2] = 300 hours storage at 50° C. under uncontrolled humidity
[3] = Initial (0 hours), storage at 50° C. under uncontrolled humidity

Structure (SMILES)	number of particles ≥10 μm in 10 mg of mitomycin C [1]	number of particles ≥25 μm in 10 mg of mitomycin C [1]	number of particles ≥10 μm in 10 mg of mitomycin C [2]	number of particles ≥25 μm in 10 mg of mitomycin C [2]	number of particles ≥10 μm in 10 mg of mitomycin C [3]	number of particles ≥25 μm in 10 mg of mitomycin C [3]	change in number of particles having a diameter of 10 μm or more	change in number of particles having a diameter of 25 μm or more
CO[C@@]12[C@H](COC(N)=O)C3=C(C(=O)C(C)=C(N)C3=O)N1C[C@@H]1N[C@@H]12 [Comparative Example 1, Mitomycin C]	7063	861	22527	3005	2118	246	significant increase	significant increase
CO[C@@]12[C@H](COC(N)=O)C3=C(C(=O)C(C)=C(N)C3=O)N1C[C@@H]1N[C@@H]12 [Comparative Example 2, Mitomycin C]	279617	51953	301967	36216	3853	178	significant increase	significant increase
CO[C@@]12[C@H](COC(N)=O)C3=C(C(=O)C(C)=C(N)C3=O)N1C[C@@H]1N[C@@H]12 [Example 1, mitomycin C]	3624	273	5683	314	3047	151	almost no increase	almost no increase
